Series [1] is described as follows: Sink in vitro dissolution test of flubendazole samples in 0.1 M HCl. The format is physicochemical. Particulars: after 10 minutes, sample containing 50 mg flubendazole in 900 ml 0.1 M HCl.
Protocol: Samples were filtered through a 0.45 μm PTFE filter, diluted and consequently measured via UV-Vis spectroscopy. Experiments were performed in triplicate.
Series [2] in a line: In vivo bioavailability study, oral capsules, plasma levels by LC-MS. Particulars: dog; analyte Flu in plasma; oral capsule with 200 mg Flu, fasted Beagle dogs, n=5. The protocol: Capsules of a 00 size were filled with either 50 wt % Flu-PEtOx nanofibrous material or with pure crystalline Flu. Each capsule contained 200 mg of Flu. These capsules were administered to beagles in 2 different sessions with at least 8 days in between both sessions. The study was approved by the ethical commission for animal testing at Ghent University. Before the dogs were fed the capsules, a fasting time of 12 hours was set. Using an intravenous catheter in the vena cephalica blood samples of 3 ml were collected at different time intervalls of 0.5, 1, 2, 4, 6, 8, 12, 16, 20 and 24 hours after administration. Plasma samples were stored at −20° C. until analyzed using an LC-MS method.
A […] flubendazole nanofibrous amorphous solid dispersion was obtained by the solution electrospinning of PEtOx and Flu in a formic acid solvent system. The process conditions were a tip to collector distance of 15 cm, a flow rate of 0.12 ml/h and a voltage of 27.5 kV. Note that this high flubendazole loading was only reached when a PEtOx wt % was used which is lower compared to the minimal required polymer concentration for solution electrospinning pure PEtOx, as shown in Example 4. […] Concentrations of Flu and its two metabolites, H-Flu and R-Flu, were monitored.

Regarding `COC(=O)Nc1nc2cc(C(=O)c3ccc(F)cc3)ccc2[nH]1` [Flu, Flubendazole], the “Dissolution rate (10 min)” value in series [1] came to 0.07 ± 0.03 µg/mL/min. For the same compound, in series [2], the Cmax – broadly, the highest concentration seen after dosing – is 1.2 ± 0.4 ng/mL and the Tmax – broadly, the time at which the peak concentration occurs – was 1 ± 0.6 h.

The record behind these values is patent publication US20250051519A1, “SOLUTION ELECTROSPUN FIBERS, COMPOSITIONS COMPRISING THE SAME AND A PROCESS OF MANUFACTURING THEREOF” (UNIVERSITEIT GENT, priority 2021, published 2025).
